# Data taken from article PMC7782793, “Hydroxamic acid-modified peptide microarrays for profiling isozyme-selective interactions and inhibition of histone deacetylases” (Nature Communications, 2021).
# Values joined by “and” are separate entries in the source; they are usually repeats but may differ in a detail not shown here. Equal entries are not always repeated. Marks after values point to notes of the source that are not given here. Non-standard residues stand in square brackets, D forms with d. Residues, ends and D or L forms follow the SMILES beside them. *: point of attachment. Asu = N[C@@H](CCCCCC(=O)O)C(=O)O; NHOH = ON*
# Legend:
# Assay type in all cases: biochemical
# [1] = target: T1, HDAC8 (Homo sapiens, UniProt Q9BY41); test: HDAC inhibition assay (fluorogenic, Ac-Leu-Gly-Lys(Tfa)-AMC); details: for HDAC8 dose-response data (relative enzyme activity, replicate values), Fig. 6 + S. Fig. 10: two replicate columns per inhibitor; for HDAC8 dose-response data (relative enzyme activity), Fig. 6 + S. Fig. 10: duplicate columns
# T1 construct: HDAC8 (full length, C-terminal His tag, BPS Bioscience, cat. #: 50008); purchased BPS Bioscience 50008
# T1 sequence (Q9BY41 1-377): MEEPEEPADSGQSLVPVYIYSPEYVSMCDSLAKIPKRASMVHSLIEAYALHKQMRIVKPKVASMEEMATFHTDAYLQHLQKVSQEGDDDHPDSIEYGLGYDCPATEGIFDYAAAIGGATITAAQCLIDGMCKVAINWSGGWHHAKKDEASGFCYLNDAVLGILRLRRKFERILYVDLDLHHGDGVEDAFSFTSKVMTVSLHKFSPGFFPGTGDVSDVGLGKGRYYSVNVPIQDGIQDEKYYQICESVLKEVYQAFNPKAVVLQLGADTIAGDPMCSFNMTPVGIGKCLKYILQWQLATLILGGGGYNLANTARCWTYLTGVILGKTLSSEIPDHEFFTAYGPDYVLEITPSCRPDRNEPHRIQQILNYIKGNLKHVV
# [2] = target: T2, HDAC1 (Homo sapiens, UniProt Q13547); test: HDAC inhibition assay (fluorogenic, Ac-Leu-Gly-Lys(Ac)-AMC); details: for HDAC1 dose-response data (relative enzyme activity), Fig. 6 + S. Fig. 10: duplicate columns
# T2 construct: HDAC1 (full length, C-terminal His tag, C-terminal FLAG tag, BPS Bioscience, cat. #: 50051); FLAG (C); purchased BPS Bioscience 50051
# [3] = target: T3, HDAC3/NCoR2 (Homo sapiens, UniProt O15379); test: as above; details: for HDAC3 dose-response data (relative enzyme activity), Fig. 6 + S. Fig. 10: duplicate columns
# T3 construct: HDAC3/NCoR2 (full length, C-terminal His tag, NCoR2 N-terminal GST tag); purchased BPS Bioscience 50003
# T3 sequence (O15379 whole entry): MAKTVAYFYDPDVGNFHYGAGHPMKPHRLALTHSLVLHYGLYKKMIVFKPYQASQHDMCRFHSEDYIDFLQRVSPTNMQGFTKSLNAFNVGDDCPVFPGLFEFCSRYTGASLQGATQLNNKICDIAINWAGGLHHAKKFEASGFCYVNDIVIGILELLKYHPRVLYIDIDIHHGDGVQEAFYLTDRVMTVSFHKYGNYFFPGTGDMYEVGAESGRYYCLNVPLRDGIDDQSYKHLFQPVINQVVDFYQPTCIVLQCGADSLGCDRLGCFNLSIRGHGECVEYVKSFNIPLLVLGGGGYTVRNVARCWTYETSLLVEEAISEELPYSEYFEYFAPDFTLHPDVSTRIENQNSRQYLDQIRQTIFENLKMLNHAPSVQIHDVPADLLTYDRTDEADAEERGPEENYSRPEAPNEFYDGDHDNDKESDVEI
# T3 sequence (Q9Y618 389-480 partner limits assumed): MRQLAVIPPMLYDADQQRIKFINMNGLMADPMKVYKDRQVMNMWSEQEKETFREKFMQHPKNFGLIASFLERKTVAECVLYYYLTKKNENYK
# T2 sequence (Q13547 whole entry): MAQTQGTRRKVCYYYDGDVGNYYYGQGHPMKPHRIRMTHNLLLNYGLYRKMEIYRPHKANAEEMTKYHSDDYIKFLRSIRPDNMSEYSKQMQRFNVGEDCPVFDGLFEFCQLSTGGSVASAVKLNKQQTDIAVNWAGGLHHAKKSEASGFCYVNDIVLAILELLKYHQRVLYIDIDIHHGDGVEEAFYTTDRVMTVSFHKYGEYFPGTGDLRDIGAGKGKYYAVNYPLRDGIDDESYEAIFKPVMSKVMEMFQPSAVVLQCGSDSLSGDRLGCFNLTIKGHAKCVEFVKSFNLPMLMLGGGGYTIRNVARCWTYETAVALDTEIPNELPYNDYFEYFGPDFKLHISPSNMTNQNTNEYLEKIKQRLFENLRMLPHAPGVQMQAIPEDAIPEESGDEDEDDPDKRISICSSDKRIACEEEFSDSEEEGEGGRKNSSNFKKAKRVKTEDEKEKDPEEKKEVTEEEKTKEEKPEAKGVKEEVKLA
smiles,measurement,setting,value
CC[C@H](C)[C@H](NC(=O)[C@@H](NC(=O)[C@H](CO)NC(=O)[C@H](CCCNC(=N)N)NC(=O)[C@H](CCCCCC(=O)NO)NC(=O)[C@H](CC(N)=O)NC(=O)[C@H](Cc1ccc(O)cc1)NC(=O)[C@H](Cc1c[nH]cn1)NC(=O)[C@H](C)NC(=O)[C@H](CC(C)C)NC(=O)[C@H](CCCNC(=N)N)NC(=O)[C@H](CO)NC(=O)[C@H](C)NC(=O)[C@H](CCC(=O)O)NC(C)=O)[C@@H](C)O)C(=O)N[C@H](C(=O)N[C@@H](CO)C(=O)N[C@@H](Cc1c[nH]c2ccccc12)C(N)=O)[C@@H](C)O [11a] (Ac-EASRLAHYN[Asu](NHOH)RSTITSW-NH2),Ki,[1],216 ± 1 nM
same,"HDAC8 dose-response data (relative enzyme activity, replicate values), Fig. 6 + S. Fig. 10",[1]; Inhibitor conc [M] -8.49485 (log),96.1111 and 96.5276
same,"HDAC8 dose-response data (relative enzyme activity, replicate values), Fig. 6 + S. Fig. 10",[1]; Inhibitor conc [M] -9.19382 (log),96.7641 and 98.5453
same,"HDAC8 dose-response data (relative enzyme activity, replicate values), Fig. 6 + S. Fig. 10",[1]; Inhibitor conc [M] given as -7.09691 (log),74.7826 and 76.7416
same,"HDAC8 dose-response data (relative enzyme activity, replicate values), Fig. 6 + S. Fig. 10",[1]; Inhibitor conc [M] given as -7.79588 (log),92.4501 and 93.9678
same,"HDAC8 dose-response data (relative enzyme activity, replicate values), Fig. 6 + S. Fig. 10",[1]; Inhibitor conc [M] given as -9.89279 (log),96.0276 and 96.961
same,"HDAC8 dose-response data (relative enzyme activity, replicate values), Fig. 6 + S. Fig. 10",[1]; Inhibitor conc [M] given as -10.585 (log),"97,4443859* and 98,1506198*"
same,"HDAC8 dose-response data (relative enzyme activity), Fig. 6 + S. Fig. 10",[1]; Inhibitor conc [M] -4.30103,1.735 and 1.62
same,"HDAC8 dose-response data (relative enzyme activity), Fig. 6 + S. Fig. 10",[1]; Inhibitor conc [M] -5,6.862 and 6.863
same,"HDAC8 dose-response data (relative enzyme activity), Fig. 6 + S. Fig. 10",[1]; Inhibitor conc [M] -5.69897,19.3274 and 19.565
same,"HDAC8 dose-response data (relative enzyme activity), Fig. 6 + S. Fig. 10",[1]; Inhibitor conc [M] -6.39794,44.2904 and 45.2063
same,Ki,[2],13.1 ± 0.1 nM
same,"HDAC1 dose-response data (relative enzyme activity), Fig. 6 + S. Fig. 10",[2]; log[inhibitor(M)] -5.69897,4.17 and 5.0607
same,"HDAC1 dose-response data (relative enzyme activity), Fig. 6 + S. Fig. 10",[2]; log[inhibitor(M)] -6.39794,14.283 and 18.2541
same,"HDAC1 dose-response data (relative enzyme activity), Fig. 6 + S. Fig. 10",[2]; log[inhibitor(M)] -7.09691,37.8888 and 46.2715
same,"HDAC1 dose-response data (relative enzyme activity), Fig. 6 + S. Fig. 10",[2]; log[inhibitor(M)] -7.79588,70.7486 and 79.6987
same,"HDAC1 dose-response data (relative enzyme activity), Fig. 6 + S. Fig. 10",[2]; log[inhibitor(M)] -8.49485,87.0411 and 94.7749
same,"HDAC1 dose-response data (relative enzyme activity), Fig. 6 + S. Fig. 10",[2]; log[inhibitor(M)] -9.19382,97.6689 and 100.068
same,"HDAC1 dose-response data (relative enzyme activity), Fig. 6 + S. Fig. 10",[2]; log[inhibitor(M)] -9.89279,97.248 and 100.059
same,"HDAC1 dose-response data (relative enzyme activity), Fig. 6 + S. Fig. 10","[2]; log[inhibitor(M)] -10,5850266520292*, whole line marked with asterisks","97,6864843* and 100,018018*"
same,Ki,[3],3.45 ± 0.02 nM
same,"HDAC3 dose-response data (relative enzyme activity), Fig. 6 + S. Fig. 10",[3]; log[inhibitor(M)] -4.30103,0.8032 and 0.6973
same,"HDAC3 dose-response data (relative enzyme activity), Fig. 6 + S. Fig. 10",[3]; log[inhibitor(M)] -5,0.9208 and 1.031
same,"HDAC3 dose-response data (relative enzyme activity), Fig. 6 + S. Fig. 10",[3]; log[inhibitor(M)] -5.69897,3.115 and 3.491
same,"HDAC3 dose-response data (relative enzyme activity), Fig. 6 + S. Fig. 10",[3]; log[inhibitor(M)] -6.39794,8.97 and 10.4813
same,"HDAC3 dose-response data (relative enzyme activity), Fig. 6 + S. Fig. 10",[3]; log[inhibitor(M)] -7.09691,21.4302 and 25.3963
